Assay results published in US12508328B2, “Bio-activated reporters to visualize, in real time, specific gene therapy products” (Northwestern University, priority 2019, dated 2025).
Read-outs that look alike come from different tables or passages of the source.

Experiments:
[1] = Relaxivity (1.4 T) in MOPS and MOPS/CO3^2−; format: physicochemical
Experimental: While measurements of q indicate how well an agent can restrict water access to the GdIII center, the most important property for a bio-activated contrast agent is the change in relaxivity upon enzymatic cleavage (r1). To evaluate the signal change in the presence of CO32−, relaxivities of the intermolecular activated agents were measured in two different buffer conditions, the non-coordinating buffer MOPS and MOPS/CO32−.
T1 relaxation times were obtained for 5a-c (FIG. 13), and complexes 10a-d (FIG. 14), and 11 at 37° C. at 60 MHz (1.4 T) on a Bruker mq60 minispec spectrometer (Billerica, MA). Three 1 mM solutions of each complex were prepared in four different buffer conditions 1) 10 mm 3-(N-morpholino)propanesulfonic acid (MOPS), 100 mm NaCl, pH 7.4, 2) 10 mm MOPS, 24 mm NaHCO3, 100 mm NaCl, pH 7.4, 3) Dulbecco's Phosphate Buffer (DPBS) pH 7.3 Life Technologies, and 4) b-galactosidase enzyme assay buffer, 200 mm sodium phosphate, 100 mm bmercaptoethanol, 2 mm MgCl2, pH 7.3 (FIG. 15). Three sets of five serial dilutions (about 1 mm, 0.5 mm, 0.25 mm, 0.125 mm and 0.0625 mm) were prepared for each complex. T1 relaxation rates were measured using an inversion recovery pule sequence (t1_ir_mb) with a 10 ms first pulse separation, recycle delay and final pulse separation ≥5 T1. T1 relaxation rates were plotted as a function of GdIII concentrations as determined by ICP-MS, r1/r2 was obtained from linear fit of concentration vs. T1 as described in Equation (1).

β-gal enzyme (lacZ) = conditions: for MR signal enhancement in lacZ-expressing mice, 1 h post injection: 9.4 T T1 weighted FLASH
Experimental: In vivo MR Imaging (9.4 T) Hemizygous transgenic mice (n=2) constitutively expressing the lacZ gene that encodes the β-gal enzyme (strain ROSA26-lacZ) were purchased from The Jackson Laboratory (Bar Harbor, ME). A non-transgenic littermate was used as a control. […] Mice were imaged with MRI at baseline, and 1, 4, and 24 hours post injection.
MRI was performed on a 9.4T Bruker Biospec MRI system with a 30 cm bore, a 12 cm gradient insert, and an Autopac automated sample positioning system (Bruker Biospin Inc, Billerica, MA). Animals were anesthetized in an induction chamber with 3% isoflurane and transferred to a dedicated imaging bed with isoflurane delivered via nosecone at 1-2%. Respiratory signals were monitored using an MR-compatible physiologic monitoring system (SA Instruments, Stonybrook, NY) and a warm water circulating system was used to maintain body temperature. Animals were placed in the prone position and a quadrature radiofrequency coil with inner diameter 40 mm was mounted on the bed. Mice were imaged using a FLASH gradient echo sequence using the following parameters: TR/TE/α=100 ms/2.2 ms/45°, MTX=192×192, FOV 4×4 cm, 9 slices of 1 mm thick, 0.3 mm slice gap, and 1 signal average.

β-gal [2] = target: T1, β-gal (Escherichia coli, UniProt P00722); conditions: dark to bright
T1 sequence (P00722 2-1024): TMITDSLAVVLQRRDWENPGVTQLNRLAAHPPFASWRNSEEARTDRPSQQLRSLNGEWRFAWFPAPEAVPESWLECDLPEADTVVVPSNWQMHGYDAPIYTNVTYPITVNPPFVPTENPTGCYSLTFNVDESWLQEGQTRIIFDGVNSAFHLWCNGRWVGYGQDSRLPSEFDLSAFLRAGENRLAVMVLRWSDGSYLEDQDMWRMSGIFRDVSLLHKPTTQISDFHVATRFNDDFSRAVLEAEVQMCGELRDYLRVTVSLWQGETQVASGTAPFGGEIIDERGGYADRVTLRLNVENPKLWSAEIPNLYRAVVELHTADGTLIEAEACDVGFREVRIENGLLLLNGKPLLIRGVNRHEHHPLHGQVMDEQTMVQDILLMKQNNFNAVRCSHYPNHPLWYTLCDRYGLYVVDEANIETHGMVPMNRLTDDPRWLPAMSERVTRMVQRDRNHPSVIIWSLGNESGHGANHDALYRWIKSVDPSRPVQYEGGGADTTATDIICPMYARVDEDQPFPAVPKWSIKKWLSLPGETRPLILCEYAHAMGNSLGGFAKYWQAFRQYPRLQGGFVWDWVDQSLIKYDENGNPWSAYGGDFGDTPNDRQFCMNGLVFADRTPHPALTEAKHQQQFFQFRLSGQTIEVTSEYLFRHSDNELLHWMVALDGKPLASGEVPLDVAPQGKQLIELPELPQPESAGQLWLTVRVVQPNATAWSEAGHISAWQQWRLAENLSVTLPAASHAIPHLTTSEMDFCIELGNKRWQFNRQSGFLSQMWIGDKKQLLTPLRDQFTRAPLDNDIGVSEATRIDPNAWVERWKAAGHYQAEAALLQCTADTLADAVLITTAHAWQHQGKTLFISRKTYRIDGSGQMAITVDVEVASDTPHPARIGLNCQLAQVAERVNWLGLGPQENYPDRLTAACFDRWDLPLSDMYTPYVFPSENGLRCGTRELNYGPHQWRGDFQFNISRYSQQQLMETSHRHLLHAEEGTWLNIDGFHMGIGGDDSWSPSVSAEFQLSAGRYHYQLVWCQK
Description: The acetate arm is attached to an amine present in the linker between the macrocycle and the galactopyranose substrate.

[3] = Complex stability measured by relaxivity (T1); format: physicochemical
[4] = Terbium(III) luminescence: determination of q; format: physicochemical; conditions: 10a′-d′, Horrock's equation; MOPS/CO3^2− buffer pH 7.4
Experimental: The q number in the absence and presence of CO32− was determined using TbIII analogues (5a′, 5b′, 5c′, and 11′). Given the similarities in chemistry amongst the lanthanides, TbIII luminescence is a convenient and established method for determining the coordination environment in corresponding GdIII chelates. The narrow […] emission at 543 nm and the relatively long lived 0.4 ms excited state lifetime for Tb(H2O)x facilitates accurate assessment of the inner-coordination sphere, differentiating between coordination of OH, OD, NH, and ND oscillators. 38 Luminescent decay curves were fit to the empirically derived Horrock's equation (Eq. 2). It was expected that the ortho position would have the lowest q in the presence of CO32−, creating a “dark” state with the lowest relaxivity.
The number of water molecules directly coordinated to the lanthanide center (q), was determined for each of the TbIII analogues 5a′-c′ (see Table 1), 10a′-d′ (Table 2), and 11′ in MilliQ water and MOPS/carbonate buffer (10 mm MOPS, 24 mm NaHCO3, pH 7.4).
The monoexponential fluorescence decay of an ≈1 mm solution of each complex was determined using a Hitachi F4500 fluorometer (Schaumburg, IL). An excitation wavelength of 308 nm and an emission wavelength of […] were used, and 25 scans were acquired and averaged for each solution. The averaged data was fit with a monoexponential decay function, and the time constant (t) for each solution was determined in triplicate. The fluorescence decay curves of the complexes were measured in both H2O and D2O, and in both buffer and deuterated buffer, obtained by lyophilizing and re-suspending the buffer in D2O three times (FIG. 17A-E). The q values were calculated using the empirically derived Horrock's equation for Tb(III) (Eq. 2): […]

β-gal [5] = target: T1, β-gal
Experimental: MR images were acquired on a Bruker Pharmscan 7 T imaging spectrometer fitted with shielded gradient coils at 25° C. Image analysis was carried out using Paravision 5.0 p13 software (Bruker, Billerica, MA, USA) with monoexponential curve-fitting of image intensities of selected regions of interest (ROIs) for each axial slice. […] Exact Gd(III) concentration was verified by ICP-MS. Either 10 μL of enzyme stock solution (50% enzyme assay buffer, 50% glycerol, at 521 U/mL β-gal) or 10 μL of a 50% enzyme assay buffer/50% glycerol solution (used as a control) were added to a 190 μL aliquot of each complex. After this addition, the final concentration of each complex was 475 μM, with 26.1 U/mL of β-gal. The solutions were incubated at 37° C. for 24 hours, then aliquoted to 5, ¾″ flame-sealed Pasteur pipets. The bottom sections of the flame-sealed pipets were then scored with a glass scribe, broken into small capillaries, and imaged using a RF RES 300 1H 089/023 quadrature transmit receive 23 mm volume coil (Bruker BioSpin, Billerica, MA, USA). T1 relaxation times were measured using a rapid-acquisition rapid-echo RARE-VTR T1-map pulse sequence with the following imaging parameters: TE (11.0 ms), TR (500.0 ms), field of view (FOV)=25×25 mm2, matrix size (MTX)=256×256, number of axial slices=5, slice thickness (SI)=1.0 mm, and averages (NEX)=3, and total scan time was 2:36:57. T2 values were measured using a multislice multiecho (MSME) T2-map pulse sequence, with static TR (5000 ms) and 32 fitted echoes in 11 ms intervals (11, 22, . . . , 352 ms). Imaging parameters were as follows: FOV=25×25 mm2, MTX=256×256, number of axial slices=4, SI=1.0 mm, NEX=3, and a total scan time=48 min. T1 images and times can be found in FIG. 14 and T2 maps and times can be found in FIG. 18.

[6] = IP 200 microliters of 40 mM, 9.4 T

For `CCOC(=O)CCCCCNc1cc(COC(=O)NCCN2CCN(CC(=O)[O-])CCN(CC(=O)[O-])CCN(CC(=O)[O-])CC2)ccc1O[C@@H]1O[C@H](CO)[C@H](O)[C@H](O)[C@H]1O.[Gd+3]` [10c, Gadolinium(III)-1-(4-(2-(1-(4,7,10-triscarboxymethyl-(1,4,7,10tetraazacyclododecyl)))ethylcarbamoyloxymethyl)-2-((6-ethoxy-6-oxohexyl)amino)phenyl)-β-D-galactopyranose], the “change in signal in the presence of CO3^2−” value ([1]; 10a-d, MOPS/CO3^2−) was “highest overall change in signal”, the “Δr1 relative to the cleaved control product 11” value ([1]; intramolecular series 10a-d, 37° C.) was 20% and the “MR signal enhancement in lacZ-expressing mice, 4 hrs post injection” value (β-gal enzyme (lacZ); [6]) was “signal enhancement was present but at a reduced level”. The “MR signal enhancement in non-transgenic control mice” value (β-gal enzyme (lacZ); [6]) was “No signal enhancement was observed”, the “MR signal enhancement in lacZ-expressing mice, 1 h post injection” value (“MR signal enhancement … 1 h post injection” for short) (β-gal enzyme (lacZ); IP 200 microliters of 40 mM) was “Global signal enhancement was observed” and the “MR signal enhancement … 1 h post injection” value (β-gal enzyme (lacZ); IP 200 microliters of 40 mM, listed as complex 3) was “Global signal enhancement was observed”. The “MR signal enhancement … 1 h post injection” value (β-gal enzyme (lacZ); IP 200 microliters of 40 mM, listed as β-galactosidase responsive agent) was “Signal enhancement was noted in the liver and kidneys”, the “MR signal enhancement in non-transgenic control mice” value (β-gal enzyme (lacZ); IP 200 microliters of 40 mM, 9.4 T, listed as complex 3) was “No signal enhancement was observed” and the “MR signal enhancement in non-transgenic control mice” value (β-gal enzyme (lacZ); IP 200 microliters of 40 mM, 9.4 T, listed as β-galactosidase responsive agent) was “minimal”. For the same molecule, the “time for MR signal to return to baseline” value (β-gal enzyme (lacZ); LacZ mice, IP injection) was no more than 24 h, the route of clearance (β-gal enzyme (lacZ); bladder very bright at 4 hour time point in one LacZ mouse) was “cleared renally” and the “change in relaxivity when exposed to β-gal (post enzyme cleavage)” value (β-gal [2]) was 90%. The “change in T1 over time (stability)” value ([3]; 1 mM in enzyme buffer pH 7.3, over 140 hours) was “No significant change in T1”, the “change in T1 over time (stability) in cell culture media” value ([3]; cell culture media, over 140 hours) was “No significant change in T1” and the “q (buffer)” value [4] was 0.1. The “T1 signal in the presence of β-gal compared with cleaved agent 11” value (β-gal [5]; 7 T solution phantoms, 24 h incubation) was “approximately the same” and the change in relaxivity (β-gal [5]; at both 1.4 and 7 T) was “positive”.
